Read-outs that look alike come from different tables or passages of the source.
Key:
HIV-1 protease [1] = molecular target: T1, HIV-1 protease (Human immunodeficiency virus type 1 group M subtype B, UniProt P04585); assay: biochemical; settings: for PROTEASE % INHIB.: Table II, enzyme HIV-1; for inhibition at 0.123 µM / inhibition at 0.37 µM / inhibition at 1.1 µM / inhibition at 3.3 µM / inhibition at 10 µM / inhibition at 30 µM: read-out: Protease % Inhib
Summary of the method: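 A substrate biotinylated at the N-terminal arginine and FITC-labelled at the C-terminal lysine was incubated with HIV-1 protease (10 μl of 0.1 μM) and compound for 1 h in the dark at room temperature. Buffer was 0.1 M sodium acetate pH 5.5, 1.0 M NaCl, 0.05% NP-40. Labelled product was separated from substrate using streptavidin beads and filtration, and the fluorescence gave percent inhibition.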

HIV-1 protease [2] = molecular target: T1, HIV-1 protease; assay: biochemical
Summary of the method: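 Biotinylated, FITC-labelled peptide substrate cleaved in 0.1 M sodium acetate pH 5.5, 1.0 M NaCl, 0.05% NP-40, room temperature. Filtered labelled product read by fluorescence; nonlinear least-squares fit.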

[3] = Table II, enzyme HIV-1, read-out: FITC KI
[4] = Table I, read-out: HIV Protease FITC Assay Ki
[5] = read-out: HIV Protease FITC Assay Ki

| Structure (SMILES) | inhibition at 0.123 µM (HIV-1 protease [1]; Table I, Dose 0.123 μM) [%] | inhibition at 0.37 µM (HIV-1 protease [1]; Table I, Dose 0.370 μM) [%] | inhibition at 1.1 µM (HIV-1 protease [1]; Table I, Dose 1.100 μM) [%] | inhibition at 3.3 µM (HIV-1 protease [1]; Table I, Dose 3.300 μM) [%] | inhibition at 10 µM (HIV-1 protease [1]; Table I, Dose 10.000 μM) [%] | inhibition at 30 µM (HIV-1 protease [1]; Table I, Dose 30.000 μM) [%] | Ki (HIV-1 protease [2]; [4]) [nM] | other results |
| --- | --- | --- | --- | --- | --- | --- | --- | --- |
| CCC[C@@]1(CCc2ccc(F)cc2)CC(O)=C([C@H](c2cccc(NS(=O)(=O)c3cn(C)cn3)c2)C(C)(C)C)C(=O)O1 (single isomer, unassigned) [Example 351, N-[3-{1(S or R)-(4-Hydroxy-5,6-dihydro-2-oxo-6(R or S)-(2-(4-fluorophenyl)ethyl)-6-propyl-2H-pyran-3-yl)-2,2-dimethyl-propyl}phenyl]-1-methyl-1H-imidazole-4-sulfonamide] |  |  |  |  |  |  |  | PROTEASE % INHIB. (HIV-1 protease [1]; DOSE 0.123 (unit not given)): < 10%; PROTEASE % INHIB. (HIV-1 protease [1]; DOSE 0.370 (unit not given)): < 10%; PROTEASE % INHIB. (HIV-1 protease [1]; DOSE 1.100 (unit not given)): 25.4%; PROTEASE % INHIB. (HIV-1 protease [1]; DOSE 3.300 (unit not given)): 55.11%; PROTEASE % INHIB. (HIV-1 protease [1]; DOSE 10.000 (unit not given)): 78.53%; PROTEASE % INHIB. (HIV-1 protease [1]; DOSE 30.000 (unit not given)): 90.55%; Ki (HIV-1 protease [2]; [3]): 558 nM |
| CCC[C@]1(CCc2ccc(F)cc2)CC(O)=C([C@H](c2cccc(NS(=O)(=O)c3cn(C)cn3)c2)C(C)(C)C)C(=O)O1 (single isomer, unassigned) [Example 352, N-[3-{1(S or R)-(4-Hydroxy-5,6-dihydro-2-oxo-6(S or R)-(2-(4-fluorophenyl)ethyl)-6-propyl-2H-pyran-3-yl)-2,2-dimethyl-propyl}phenyl]-1-methyl-1H-imidazole-4-sulfonamide] |  |  |  |  |  |  |  | PROTEASE % INHIB. (HIV-1 protease [1]; DOSE 0.123 (unit not given)): < 10%; PROTEASE % INHIB. (HIV-1 protease [1]; DOSE 0.370 (unit not given)): 25.31%; PROTEASE % INHIB. (HIV-1 protease [1]; DOSE 1.100 (unit not given)): 47.78%; PROTEASE % INHIB. (HIV-1 protease [1]; DOSE 3.300 (unit not given)): 74.99%; PROTEASE % INHIB. (HIV-1 protease [1]; DOSE 10.000 (unit not given)): 85.86%; PROTEASE % INHIB. (HIV-1 protease [1]; DOSE 30.000 (unit not given)): 87.82%; Ki (HIV-1 protease [2]; [3]): 168 nM |
| CC(C)(C)C(C1=C(O)CC(CCc2ccccc2)(CCc2ccccc2)OC1=O)c1cccc(NS(=O)(=O)c2ccc(N)cn2)c1 (single isomer, unassigned) [Example 355, N-[3-{1(R or S)-(4-Hydroxy-5,6-dihydro-2-oxo-6,6-bis(2-phenylethyl)-2H-pyran-3-yl)-2,2-dimethylpropyl}phenyl]-5-aminopyridine-2-sulfonamide] |  |  |  |  |  |  |  | PROTEASE % INHIB. (HIV-1 protease [1]; DOSE 0.123 (unit not given)): < 10%; PROTEASE % INHIB. (HIV-1 protease [1]; DOSE 0.370 (unit not given)): < 10%; PROTEASE % INHIB. (HIV-1 protease [1]; DOSE 1.100 (unit not given)): < 10%; PROTEASE % INHIB. (HIV-1 protease [1]; DOSE 3.300 (unit not given)): 20.72%; PROTEASE % INHIB. (HIV-1 protease [1]; DOSE 10.000 (unit not given)): 46.66%; PROTEASE % INHIB. (HIV-1 protease [1]; DOSE 30.000 (unit not given)): 67.82%; Ki (HIV-1 protease [2]; [3]): 700 nM |
| CCCC1CCCCCc2c1oc(=O)c(C(c1cccc(NS(=O)(=O)c3ccccc3)c1)C1CC1)c2O (centres unmarked) [Example 1, N-[3-[cyclopropyl(5,6,7,8,9,10-hexahydro-4-hydroxy-2-oxo-10-propyl-2H-cycloocta[b]pyran-3-yl)methyl]phenyl]benzenesulfonamide] | 75.4 | 87.3 | 97.1 | 96.8 | 99.7 | 97.4 | 15 |  |
| O=c1oc2c(c(O)c1C(c1cccc(CS(=O)(=O)c3ccccc3)c1)C1CC1)CCCCCC2 (centres unmarked) [Example 10, 3-[Cyclopropyl[3-[(phenylsulfonyl)methyl]phenyl]methyl]-5,6,7,8,9,10-hexahydro-4-hydroxy-2H-Cycloocta[b]pyran-2-one] |  |  |  |  |  |  |  | inhibition at 0.123 µM (HIV-1 protease [1]): 102%; inhibition at 0.37 µM (HIV-1 protease [1]): 112%; inhibition at 1.1 µM (HIV-1 protease [1]): 116%; inhibition at 3.3 µM (HIV-1 protease [1]): 119%; inhibition at 10 µM (HIV-1 protease [1]): 129%; inhibition at 30 µM (HIV-1 protease [1]): 130%; Ki (HIV-1 protease [2]; [5]): 5.71 nM |
| N#Cc1ccc(S(=O)(=O)Cc2cccc(C(c3c(O)c4c(oc3=O)CCCCCC4)C3CC3)c2)cc1 (centres unmarked) [Example 11, 3-[cyclopropyl[3-[(4-cyanophenylsulfonyl)methyl]phenyl]methyl]-5,6,7,8,9,10-hexahydro-4-hydroxy-2H-cycloocta[b]pyran-2-one] | 78.9 | 95.3 | 100 | 95.1 | 99.7 | 104 | 1.9 |  |
| O=c1oc2c(c(O)c1C(c1cccc(CS(=O)(=O)c3ccc(F)cc3)c1)C1CC1)CCCCCC2 (centres unmarked) [Example 12, 3-[cyclopropyl[3-[(4-fluorophenylsulfonyl)methyl]phenyl]methyl]-5,6,7,8,9,10-hexahydro-4-hydroxy-2H-cycloocta[b]pyran-2-one] | 75.7 | 87.2 | 91.8 | 91.1 | 94.7 | 95.7 | 2.15 |  |
| Cc1ccc(S(=O)(=O)Cc2cccc(C(c3c(O)c4c(oc3=O)CCCCCC4)C3CC3)c2)cc1 (centres unmarked) [Example 13, 3-[cyclopropyl[3-[(4-methylphenylsulfonyl)methyl]phenyl]methyl]-5,6,7,8,9,10-hexahydro-4-hydroxy-2H-cycloocta[b]pyran-2-one] | 68.9 | 88.1 | 94 | 95.5 | 98.6 | 104 | 4.15 |  |
| O=C(O)c1ccc(S(=O)(=O)Cc2cccc(C(c3c(O)c4c(oc3=O)CCCCCC4)C3CC3)c2)cc1 (centres unmarked) [Example 14, 3-[cyclopropyl[3-[(4-carboxyphenylsulfonyl)methyl]phenyl]methyl]-5,6,7,8,9,10-hexahydro-4-hydroxy-2H-cycloocta[b]pyran-2-one] | 65.7 | 88 | 96.8 | 96.6 | 102 | 106 | 6.88 |  |
| Cn1ccnc1S(=O)(=O)Cc1cccc(C(c2c(O)c3c(oc2=O)CCCCCC3)C2CC2)c1 (centres unmarked) [Example 15, 3-[cyclopropyl[3-[(2-(1-methylimidazoyl)sulfonyl)methyl]phenyl]methyl]-5,6,7,8,9,10-hexahydro-4-hydroxy-2H-cycloocta[b]pyran-2-one] | 77.6 | 88.5 | 92.4 | 94 | 95.8 | 99.2 | 2.8 |  |
| CCCC1(CCc2ccccc2)CC(O)=C(C(CC)c2cccc(NS(=O)(=O)c3ccc(C#N)cc3)c2)C(=O)O1 (centres unmarked) [Example 40, 4-Cyano-N-[3-[1-(4-hydroxy-2-oxo-6-phenethyl-6-propyl-5,6-dihydro-2H-pyran-3-yl)-propyl]-phenyl]-benzenesulfonamide] | 59.6 | 102 | 98.7 | 105 | 88.7 | 72.7 | 10.8 |  |
| CCCC1(CCc2ccccc2)CC(O)=C(C(CC)c2cccc(NS(=O)(=O)c3cn(C)cn3)c2)C(=O)O1 (centres unmarked) [Example 41, N-[3-[1-(4-hydroxy-2-oxo-6-phenethyl-6-propyl-5,6-dihydro-2H-pyran-3-yl)-propyl]-phenyl]-1-methyl-1H-imidazole-4-sulfonamide] |  |  |  |  |  |  |  | inhibition at 0.123 µM (HIV-1 protease [1]): 103%; inhibition at 0.37 µM (HIV-1 protease [1]): 102%; inhibition at 1.1 µM (HIV-1 protease [1]): 104%; inhibition at 3.3 µM (HIV-1 protease [1]): 101%; inhibition at 10 µM (HIV-1 protease [1]): 85.9%; inhibition at 30 µM (HIV-1 protease [1]): 72.8%; Ki (HIV-1 protease [2]; [5]): 3.17 nM |
| CCCC1(CCc2ccccc2)CC(O)=C(C(CC)c2cccc(NS(=O)(=O)c3cccc4cccnc34)c2)C(=O)O1 (centres unmarked) [Example 42, N-[3-[1-(4-hydroxy-2-oxo-6-phenethyl-6-propyl-5,6-dihydro-2H-pyran-3-yl)-propyl]-phenyl]-8-quinolinesulfonamide] |  |  |  |  |  |  |  | inhibition at 0.123 µM (HIV-1 protease [1]): 86.2%; inhibition at 0.37 µM (HIV-1 protease [1]): 103%; inhibition at 1.1 µM (HIV-1 protease [1]): 98.3%; inhibition at 3.3 µM (HIV-1 protease [1]): 102%; inhibition at 10 µM (HIV-1 protease [1]): 91.4%; inhibition at 30 µM (HIV-1 protease [1]): 76.1%; Ki (HIV-1 protease [2]; [5]): 3.1 nM |
| CCCC1(CCC)CC(O)=C(C(CC)c2cccc(NS(=O)(=O)c3cccc4cccnc34)c2)C(=O)O1 (centres unmarked) [Example 43, N-[3-[1-(4-hydroxy-2-oxo-6,6-dipropyl-5,6-dihydro-2H-pyran-3-yl)-propyl]-phenyl]-8-quinolinesulfonamide] | 85.6 | 99 | 95.7 | 96.7 | 102 | 85.6 | 3.65 |  |
| CCCC1(CCC)CC(O)=C(C(CC)c2cccc(NS(=O)(=O)c3cn(C)cn3)c2)C(=O)O1 (centres unmarked) [Example 44, N-[3-[1-(4-hydroxy-2-oxo-6,6-dipropyl-5,6-dihydro-2H-pyran-3-yl)-propyl]-phenyi]-1-methyl-1H-imidazolesulfonamide] | 98.4 | 114 | 120 | 113 | 102 | 80 | 1.8 |  |
| CCCC1(CCC)CC(O)=C(C(CC)c2cccc(NS(=O)(=O)c3ccc(F)cc3)c2)C(=O)O1 (centres unmarked) [Example 45, 4-Fluoro-N-[3-[1-(4-hydroxy-2-oxo-6,6-dipropyl-5,6-dihydro-2H-pyran-3-yl)-propyl]-phenyl]-benzenesulfonamide] | 82.2 | 94.4 | 101 | 103 | 89.8 | 67.5 | 4.78 |  |
| CCCC1(CCC)CC(O)=C(C(CC)c2cccc(NS(=O)(=O)c3ccc(C#N)cc3)c2)C(=O)O1 (centres unmarked) [Example 46, 4-Cyano-N-[3-[1-(4-hydroxy-2-oxo-6,6-dipropyl-5,6-dihydro-2H-pyran-3-yl)-propyl]-phenyl]-benzenesulfonamide] | 85.9 | 99.2 | 103 | 97.6 | 91.5 | 74.1 | 2.92 |  |

Source: US6169181A, “Compounds useful to treat retroviral infections” (Pharmacia & Upjohn Company, priority 1998, dated 2001)
